Experimental data as given in PubChem BioAssay (NCI).
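These data come from cells grown in 96-well plates and exposed to compound for 48 hours at five concentrations. TGI: concentration producing complete growth inhibition.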

Tests used:
Experiment in all cases: inhibition of tumour cell growth, NCI panel, 48 h
[1] = system: 786-0 renal
[2] = system: A498 renal
[3] = system: A549 NSCLC
[4] = system: ACHN renal
[5] = system: BT-549 breast
[6] = system: CAKI-1 renal
[7] = system: CCRF-CEM leukemia
[8] = system: COLO 205 colon
[9] = system: DU-145 prostate
[10] = system: EKVX NSCLC
[11] = system: HCC-2998 colon
[12] = system: HCT-116 colon
[13] = system: HCT-15 colon
[14] = system: HL-60(TB) leukemia
[15] = system: HOP-62 NSCLC
[16] = system: HS 578T breast
[17] = system: HT29 colon
[18] = system: IGROV1 ovarian
[19] = system: K-562 leukemia
[20] = system: KM12 colon
[21] = system: LOX IMVI melanoma
[22] = system: M14 melanoma
[23] = system: MALME-3M melanoma
[24] = system: MCF7 breast
[25] = system: MDA-MB-231 breast
[26] = system: MDA-MB-435
[27] = system: MOLT-4 leukemia
[28] = system: NCI-H226 lung
[29] = system: NCI-H23 lung
[30] = system: NCI-H460 lung
[31] = system: NCI-H522 lung
[32] = system: NCI/ADR-RES ovarian
[33] = system: OVCAR-3 ovarian
[34] = system: OVCAR-4 ovarian
[35] = system: OVCAR-5 ovarian
[36] = system: OVCAR-8 ovarian
[37] = system: PC-3 prostate
[38] = system: RPMI-8226 leukemia
[39] = system: RXF 393 renal
[40] = system: SF-268 CNS
[41] = system: SF-295 CNS
[42] = system: SF-539 CNS
[43] = system: SK-MEL-2 melanoma
[44] = system: SK-MEL-28 melanoma
[45] = system: SK-MEL-5 melanoma
[46] = system: SK-OV-3 ovarian
[47] = system: SN12C renal
[48] = system: SNB-19 CNS
[49] = system: SNB-75 CNS
[50] = system: SW-620 colon
[51] = system: T-47D breast
[52] = system: TK-10 renal
[53] = system: U251 CNS
[54] = system: UACC-257 melanoma
[55] = system: UACC-62 melanoma
[56] = system: HOP-92 NSCLC
[57] = system: UO-31 renal

Q: What does the source list for `Cc1cc2c(cc1Cl)SC(NNC(=O)c1ccccc1)=NS2(=O)=O`?
A: TGI [1]: > 10 µM; TGI [2]: > 10 µM; TGI [3]: > 10 µM; TGI [4]: > 10 µM; TGI [5]: > 10 µM; TGI [6]: > 10 µM; TGI [7]: > 10 µM; TGI [8]: > 10 µM; TGI [9]: > 10 µM; TGI [10]: > 10 µM; TGI [11]: > 10 µM; TGI [12]: > 10 µM; TGI [13]: > 10 µM; TGI [14]: > 10 µM; TGI [15]: > 10 µM; TGI [16]: > 10 µM; TGI [17]: > 10 µM; TGI [18]: > 10 µM; TGI [19]: > 10 µM; TGI [20]: > 10 µM; TGI [21]: > 10 µM; TGI [22]: > 10 µM; TGI [23]: > 10 µM; TGI [24]: 5.76 µM; TGI [25]: > 10 µM; TGI [26]: > 10 µM; TGI [27]: > 10 µM; TGI [28]: > 10 µM; TGI [29]: > 10 µM; TGI [30]: > 10 µM; TGI [31]: > 10 µM; TGI [32]: > 10 µM; TGI [33]: > 10 µM; TGI [34]: > 10 µM; TGI [35]: > 10 µM; TGI [36]: > 10 µM; TGI [37]: > 10 µM; TGI [38]: > 10 µM; TGI [39]: > 10 µM; TGI [40]: > 10 µM; TGI [41]: > 10 µM; TGI [42]: > 10 µM; TGI [43]: > 10 µM; TGI [44]: > 10 µM; TGI [45]: > 10 µM; TGI [46]: > 10 µM; TGI [47]: > 10 µM; TGI [48]: > 10 µM; TGI [49]: > 10 µM; TGI [50]: > 10 µM; TGI [51]: > 10 µM; TGI [52]: > 10 µM; TGI [53]: > 10 µM; TGI [54]: > 10 µM; TGI [55]: > 10 µM

Q: With `O=Nn1c2ccccc2c2ccccc21` as the molecule, how does the TGI [1] read?
A: > 100 µM

Q: And the TGI [2]?
A: 75.7 µM

Q: And the TGI [3]?
A: > 100 µM

Q: What about the TGI [4] of the same molecule?
A: > 100 µM

Q: And the TGI [5]?
A: > 100 µM

Q: What about the TGI [6] of the same molecule?
A: > 100 µM

Q: What about the TGI [7] of the same molecule?
A: > 100 µM

Q: And the TGI [8]?
A: 33.2 µM

Q: What about the TGI [9] of the same molecule?
A: > 100 µM

Q: What about the TGI [10] of the same molecule?
A: > 100 µM

Q: And the TGI [11]?
A: 60.7 µM

Q: What about the TGI [12] of the same molecule?
A: > 100 µM

Q: And the TGI [13]?
A: > 100 µM

Q: And the TGI [14]?
A: > 100 µM

Q: What about the TGI [15] of the same molecule?
A: > 100 µM

Q: And the TGI [56]?
A: > 100 µM

Q: What about the TGI [16] of the same molecule?
A: > 100 µM

Q: And the TGI [17]?
A: > 100 µM

Q: What about the TGI [18] of the same molecule?
A: > 100 µM

Q: What about the TGI [19] of the same molecule?
A: > 100 µM

Q: And the TGI [20]?
A: > 100 µM

Q: And the TGI [21]?
A: > 100 µM

Q: And the TGI [22]?
A: > 100 µM

Q: What about the TGI [23] of the same molecule?
A: > 100 µM

Q: What about the TGI [24] of the same molecule?
A: > 100 µM

Q: What about the TGI [25] of the same molecule?
A: > 100 µM

Q: And the TGI [26]?
A: > 100 µM

Q: And the TGI [27]?
A: > 100 µM

Q: And the TGI [28]?
A: > 100 µM

Q: What about the TGI [29] of the same molecule?
A: > 100 µM

Q: And the TGI [30]?
A: > 100 µM

Q: And the TGI [31]?
A: > 100 µM

Q: And the TGI [32]?
A: > 100 µM

Q: What about the TGI [33] of the same molecule?
A: > 100 µM

Q: And the TGI [34]?
A: > 100 µM

Q: And the TGI [35]?
A: > 100 µM

Q: And the TGI [36]?
A: > 100 µM

Q: What about the TGI [37] of the same molecule?
A: > 100 µM

Q: And the TGI [38]?
A: > 100 µM

Q: And the TGI [39]?
A: > 100 µM

Q: What about the TGI [40] of the same molecule?
A: > 100 µM

Q: What about the TGI [41] of the same molecule?
A: > 100 µM

Q: And the TGI [42]?
A: > 100 µM

Q: And the TGI [43]?
A: > 100 µM

Q: What about the TGI [44] of the same molecule?
A: > 100 µM

Q: What about the TGI [45] of the same molecule?
A: > 100 µM

Q: What about the TGI [46] of the same molecule?
A: > 100 µM

Q: What about the TGI [47] of the same molecule?
A: > 100 µM

Q: What about the TGI [48] of the same molecule?
A: > 100 µM

Q: And the TGI [49]?
A: > 100 µM

Q: What about the TGI [50] of the same molecule?
A: > 100 µM

Q: And the TGI [51]?
A: > 100 µM

Q: What about the TGI [52] of the same molecule?
A: > 100 µM

Q: And the TGI [53]?
A: > 100 µM

Q: What about the TGI [54] of the same molecule?
A: > 100 µM

Q: What about the TGI [55] of the same molecule?
A: > 100 µM

Q: What about the TGI [57] of the same molecule?
A: > 100 µM
